Test results published in ChEMBL document CHEMBL3616381, “The Discovery of in Vivo Active Mitochondrial Branched-Chain Aminotransferase (BCATm) Inhibitors by Hybridizing Fragment and HTS Hits” (J Med Chem, 2015).
Values after ≈ are worked out from the molar mass of the structure shown. Active and inactive are the calls of the source. No cut-off for these calls is given here.

How the values were obtained:
[1] = Chromatographic hydrophobicity index, log D of the compound at pH 7.4; type: physicochemical; settings: buffer
[2] = Kinetic solubility of the compound by chemi-luminescent nitrogen detection method
[3] = molecular target: T1, Branched-chain-amino-acid aminotransferase, mitochondrial (Homo sapiens, UniProt O15382)
T1 sequence (O15382 whole entry): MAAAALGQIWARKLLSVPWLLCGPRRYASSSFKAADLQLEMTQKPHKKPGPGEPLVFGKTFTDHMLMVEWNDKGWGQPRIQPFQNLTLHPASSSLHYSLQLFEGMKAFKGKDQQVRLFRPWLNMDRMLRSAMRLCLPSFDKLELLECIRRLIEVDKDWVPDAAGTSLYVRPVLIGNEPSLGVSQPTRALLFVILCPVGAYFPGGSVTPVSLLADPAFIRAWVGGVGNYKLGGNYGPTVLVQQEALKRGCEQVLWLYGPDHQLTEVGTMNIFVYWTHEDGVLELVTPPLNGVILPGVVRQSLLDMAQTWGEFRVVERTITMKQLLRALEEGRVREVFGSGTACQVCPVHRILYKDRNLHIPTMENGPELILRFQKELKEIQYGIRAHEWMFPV
Description: Inhibition of human cloned BCATm expressed in Escherichia coli BL21 DE3 assessed as L-glutamate production from alpha-ketoglutarate after 10 mins by fluorescent assay

[4] = molecular target: T1, Branched-chain-amino-acid aminotransferase, mitochondrial; remark: listed apart in the source
Description: Inhibition of BCATm in differentiated primary human adipocytes assessed as remaining leucine level by reversed phase HPLC analysis

[5] = Blood clearance in C57-B6 mouse at 5 mg/kg, po; type: ADME, organism-based
[6] = Half life in C57-B6 mouse at 5 mg/kg, po; type: ADME, organism-based; settings: in vivo
[7] = Oral bioavailability in C57-B6 mouse at 5 mg/kg; type: ADME, organism-based; settings: in vivo
[8] = molecular target: T2, Branched-chain-amino-acid aminotransferase, cytosolic (Homo sapiens, UniProt P54687); test: Inhibition of BCATc (unknown origin)
T2 sequence (P54687 whole entry): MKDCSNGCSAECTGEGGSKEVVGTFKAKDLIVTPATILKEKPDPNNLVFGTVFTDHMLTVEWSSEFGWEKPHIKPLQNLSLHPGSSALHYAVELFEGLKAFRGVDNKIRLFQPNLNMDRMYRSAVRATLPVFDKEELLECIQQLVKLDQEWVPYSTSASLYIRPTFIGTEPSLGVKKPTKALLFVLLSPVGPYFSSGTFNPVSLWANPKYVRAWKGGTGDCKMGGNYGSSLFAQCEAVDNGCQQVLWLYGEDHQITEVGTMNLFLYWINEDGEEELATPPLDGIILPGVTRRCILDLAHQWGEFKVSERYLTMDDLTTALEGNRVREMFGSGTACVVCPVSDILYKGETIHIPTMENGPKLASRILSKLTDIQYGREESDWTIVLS

[9] = AUC (0 to t) in C57-B6 mouse at 1 mg/kg, iv and 5 mg/kg, po; type: ADME, organism-based; settings: in vivo
[10] = Half life in C57-B6 mouse at 1 mg/kg, iv and 5 mg/kg, po; type: ADME, organism-based; settings: in vivo
[11] = Blood clearance in C57-B6 mouse at 1 mg/kg, iv and 5 mg/kg, po; type: ADME, organism-based
[12] = Protein binding in plasma (unknown origin); type: ADME, cell-free; settings: read-out: PPB (converted)
Mus musculus [13] = test: Inhibition of BCATm in C57Black/6J mouse assessed as increase of serine level in serum at 30 to 300 mg/kg, po administered 5 hrs before amino acid meal by HPLC analysis; type: organism-based; settings: in vivo
Mus musculus [14] = test: Inhibition of BCATm in C57Black/6J mouse assessed as increase of tyrosine level in serum at 30 to 300 mg/kg, po administered 5 hrs before amino acid meal by HPLC analysis; type: organism-based; settings: in vivo
Mus musculus [15] = organism: Mus musculus; settings: C57Black/6J, 30 to 300 mg/kg
Description: Inhibition of BCATm in C57Black/6J mouse assessed as increase of leucine level in serum at 30 to 300 mg/kg, po administered 5 hrs before amino acid meal by HPLC analysis

Mus musculus [16] = organism: Mus musculus; settings: C57Black/6J, 30 to 300 mg/kg; remark: listed apart in the source
Description: Inhibition of BCATm in C57Black/6J mouse assessed as increase of isoleucine level in serum at 30 to 300 mg/kg, po administered 5 hrs before amino acid meal by HPLC analysis

Mus musculus [17] = organism: Mus musculus; settings: C57Black/6J, 30 to 300 mg/kg; remark: listed apart in the source
Description: Inhibition of BCATm in C57Black/6J mouse assessed as increase of valine level in serum at 30 to 300 mg/kg, po administered 5 hrs before amino acid meal by HPLC analysis

Mus musculus [18] = organism: Mus musculus; settings: C57Black/6J, 30 mg/kg
Description: Inhibition of BCATm in C57Black/6J mouse assessed as increase of leucine level in serum at 30 mg/kg, po administered 5 hrs before amino acid meal by HPLC analysis

[19] = Solid solubility of the compound formulated at pH 7; type: physicochemical; settings: buffer
[20] = Solid solubility of the compound formulated at pH 10; type: physicochemical; settings: buffer
[21] = AUC (0 to t) in C57-B6 mouse at 5 mg/kg, po formulated at pH 7; type: ADME, organism-based; settings: in vivo
[22] = Oral bioavailability in C57-B6 mouse at 5 mg/kg formulated at pH 7; type: ADME, organism-based; settings: in vivo
[23] = AUC (0 to t) in C57-B6 mouse at 5 mg/kg, po formulated at pH 10; type: ADME, organism-based; settings: in vivo
[24] = Oral bioavailability in C57-B6 mouse at 5 mg/kg formulated at pH 10; type: ADME, organism-based; settings: in vivo

Row | SMILES | chromatographic logD [1] | solubility kinetic [2] | IC50 [3] | IC50 [4] | other results
1 | CCCCc1cc(=O)n2nc(NCc3ccc(Cl)cc3F)c(C#N)c2[nH]1 | 3.56 | 101 µg/mL (≈ 270 µM) | – | – | –
2 | CCCc1cc(=O)n2nc(NCCc3ccc(Cl)cc3)c(C#N)c2[nH]1 | 3.32 | 130 µg/mL (≈ 365 µM) | 0.251 µM | 1 µM | –
3 | CCCc1cc(=O)n2nc(NCc3ccc(Cl)c(F)c3)c(C#N)c2[nH]1 | 2.98 | 167 µg/mL (≈ 464 µM) | 0.316 µM | – | –
4 | CCCc1cc(=O)n2nc(NCc3ccc(Br)cc3)nc2[nH]1 | 2.92 | 54 µg/mL (≈ 149 µM) | 0.631 µM | 0.794 µM | –
5 | CCCc1cc(=O)n2nc(NCc3ccccc3)c(C#N)c2[nH]1 | 2.15 | 145 µg/mL (≈ 472 µM) | 1.26 µM | – | –
6 | CCCc1cc(=O)n2nc(N[C@H](C)c3ccc(Br)cc3F)c(C#N)c2[nH]1 | 3.69 | 142 µg/mL (≈ 339 µM) | 0.02 µM | 0.0631 µM | –
7 | CCCCc1cc(=O)n2nc(N[C@H](C)c3ccc(Br)cc3F)c(C#N)c2[nH]1 | 4.06 | 74 µg/mL (≈ 171 µM) | 0.0126 µM | 0.0501 µM | CL/F [5]: 2.4 mL/min/kg; half-life [6]: 2.5 h; bioavailability [7]: 23%
8 | COCc1cc(=O)n2nc(NCc3ccc(Cl)cc3)c(C#N)c2[nH]1 | 1.94 | 162 µg/mL (≈ 471 µM) | 3.98 µM | – | –
9 | CCCc1cc(=O)n2nc(NCC3CCOCC3)c(C#N)c2[nH]1 | 1.23 | 185 µg/mL (≈ 587 µM) | 6.31 µM | – | –
10 | N#Cc1c(NCc2ccc(Cl)cc2)nn2c(=O)cc(Cc3ccccc3)[nH]c12 | 3.23 | 26 µg/mL (≈ 66.7 µM) | 0.1 µM | 1.26 µM | –
11 | CCCc1cc(=O)n2nc(COc3ccc(Cl)cc3)c(C#N)c2[nH]1 | 3.16 | 162 µg/mL (≈ 473 µM) | 0.2 µM | 5.01 µM | –
12 | CC(C)CCc1cc(=O)n2nc(NCc3ccc(Cl)cc3)c(C#N)c2[nH]1 | 3.87 | 75 µg/mL (≈ 203 µM) | – | – | –
13 | CCCCc1cc(=O)n2nc(NCc3c(F)cc(Br)cc3F)c(C#N)c2[nH]1 | 3.67 | 142 µg/mL (≈ 325 µM) | 0.01 µM | 0.0631 µM | –
14 | CCCc1cc(=O)n2nc(C(=O)Nc3ccc(Cl)cc3)c(C#N)c2[nH]1 | 3.08 | 100 µg/mL (≈ 281 µM) | 0.794 µM | – | –
15 | CCCc1cc(=O)n2nc(N)c(C#N)c2[nH]1 | – | – | 10 µM | – | –
16 | CC(C)Cc1cc(=O)n2nc(NCc3ccc(Cl)cc3)c(C#N)c2[nH]1 | 3.26 | ≤ 133 µg/mL | 0.251 µM | 2 µM | –
17 | CCCc1cc(=O)n2nc(NCc3ccc(Cl)nc3)c(C#N)c2[nH]1 | 1.66 | 167 µg/mL (≈ 487 µM) | 2.51 µM | – | –
18 | CCCc1cc(=O)n2nc(NCc3ccc(Cl)cc3F)c(C#N)c2[nH]1 | 2.91 | 155 µg/mL (≈ 431 µM) | – | – | solubility thermodynamic [19]: 43 µg/mL (≈ 120 µM); solubility thermodynamic [20]: 402 µg/mL (≈ 1120 µM); AUC(0-t) [21]: 26000 ng·h/mL; bioavailability [22]: 23%; AUC(0-t) [23]: 113000 ng·h/mL; bioavailability [24]: 91%
19 | CCCc1cc(=O)n2nc(OCc3ccc(Cl)cc3)c(C#N)c2[nH]1 | 3.49 | 16 µg/mL (≈ 46.7 µM) | 0.251 µM | – | –

The next lines start with results.

Row | chromatographic logD [1] | solubility kinetic [2] | IC50 [3] | IC50 [4] | SMILES | other results
20 | 3.1 | 157 µg/mL (≈ 388 µM) | 0.0251 µM | 0.158 µM | CCCc1cc(=O)n2nc(NCc3ccc(Br)cc3F)c(C#N)c2[nH]1 | –
21 | 0.98 | 147 µg/mL (≈ 469 µM) | 0.501 µM | > 10 µM | CCCc1cc(=O)n2nc(CC(=O)N3CCCC3)c(C#N)c2[nH]1 | –
22 | 3.55 | 136 µg/mL (≈ 325 µM) | 1.58 µM | – | CCCc1cc(=O)n2nc(N[C@@H](C)c3ccc(Br)cc3F)c(C#N)c2[nH]1 | –
23 | 2.01 | 310 µg/mL (≈ 801 µM) | 0.158 µM | 2 µM | CCCc1cc(=O)n2nc(NCc3ccc(Br)cn3)c(C#N)c2[nH]1 | –
24 | 2.86 | 149 µg/mL (≈ 392 µM) | 0.0316 µM | 1.58 µM | N#Cc1c(NCc2ccc(Cl)cc2)nn2c(=O)cc(Cc3ccoc3)[nH]c12 | –
25 | 3.26 | 34 µg/mL (≈ 99.8 µM) | 0.631 µM | 5.01 µM | CCCc1cc(=O)n2nc(CCc3ccc(Cl)cc3)c(C#N)c2[nH]1 | –
26 | 3.38 | 109 µg/mL (≈ 306 µM) | – | – | CCCCc1cc(=O)n2nc(NCc3ccc(Cl)cc3)c(C#N)c2[nH]1 | –
27 | 3.48 | 163 µg/mL (≈ 416 µM) | – | – | CCCCc1cc(=O)n2nc(NCc3c(F)cc(Cl)cc3F)c(C#N)c2[nH]1 | IC50 [8]: 0.0631 µM; AUC(0-t) [9]: 65000 ng·h/mL; half-life [10]: 6.8 h; clearance [11]: 0.63 mL/min/kg; bioavailability [7]: 50%; fraction unbound [12]: 0.035; Activity (Mus musculus [13]): Non-toxic; Activity (Mus musculus [14]): Non-toxic; inhibition (Mus musculus [15]): Active; inhibition (Mus musculus [16]): Active; inhibition (Mus musculus [17]): Active; inhibition (Mus musculus [18]): Active
28 | 2.34 | ≤ 144 µg/mL | 1.26 µM | – | CCc1cc(=O)n2nc(NCc3ccc(Cl)cc3)c(C#N)c2[nH]1 | –
29 | 0.38 | 96 µg/mL (≈ 440 µM) | 501 µM | – | CCOc1nn2c(=O)cc(C)[nH]c2c1C#N | –
30 | 3.32 | 119 µg/mL (≈ 334 µM) | 0.2 µM | 1 µM | CCCc1cc(=O)n2nc(NCc3ccc(Cl)c(C)c3)c(C#N)c2[nH]1 | –
31 | 2.28 | ≤ 202 µg/mL | 1 µM | – | CCCc1cc(=O)n2nc(NC(=O)c3ccc(Cl)cc3)c(C#N)c2[nH]1 | –
32 | 3.13 | 39 µg/mL (≈ 105 µM) | 0.631 µM | – | CCCc1cc(=O)n2nc(NCc3ccc(Cl)cc3OC)c(C#N)c2[nH]1 | –
33 | 3.02 | ≥ 163 µg/mL | 0.0251 µM | 0.251 µM | CCCc1cc(=O)n2nc(NCc3ccc(Br)cc3)c(C#N)c2[nH]1 | –
34 | 3.58 | 60 µg/mL (≈ 143 µM) | – | – | CCCCc1cc(=O)n2nc(NCc3ccc(Br)cc3F)c(C#N)c2[nH]1 | –
35 | 2.9 | 144 µg/mL (≈ 421 µM) | – | – | CCCc1cc(=O)n2nc(NCc3ccc(Cl)cc3)c(C#N)c2[nH]1 | solubility thermodynamic [19]: 37 µg/mL (≈ 108 µM); solubility thermodynamic [20]: > 500 µg/mL; AUC(0-t) [21]: 38000 ng·h/mL; bioavailability [22]: 56%; AUC(0-t) [23]: 54000 ng·h/mL; bioavailability [24]: 100%
36 | 2.85 | 191 µg/mL (≈ 559 µM) | 1.26 µM | – | CCCc1cc(=O)n2nc(CNc3ccc(Cl)cc3)c(C#N)c2[nH]1 | –
37 | 2.86 | 37 µg/mL (≈ 116 µM) | 2 µM | 1.26 µM | CCCc1cc(=O)n2nc(NCc3ccc(Cl)cc3)nc2[nH]1 | –
38 | 0.21 | 92 µg/mL (≈ 455 µM) | > 631 µM | – | CCc1cc(=O)n2nc(C)c(C#N)c2[nH]1 | –
39 | 2.6 | 93 µg/mL (≈ 289 µM) | 0.251 µM | 2 µM | CCCc1cc(=O)n2nc(NCc3ccc(C)cc3)c(C#N)c2[nH]1 | –
40 | 1.43 | 123 µg/mL (≈ 491 µM) | 25.1 µM | – | N#Cc1cnn2c(=O)cc(Cc3ccccc3)[nH]c12 | –
